Values quoted from earlier work as cited in patent publication US9617279B1, “Imidazooxadiazole compounds” (BRISTOL-MYERS SQUIBB COMPANY, priority 2014, dated 2017).

Key:
[1] = biological target: T1, protease-activated receptor type 4 (PAR4) (Homo sapiens, UniProt Q96RI0); conditions: abstract of Lee et al. 2001
T1 sequence (Q96RI0 18-385): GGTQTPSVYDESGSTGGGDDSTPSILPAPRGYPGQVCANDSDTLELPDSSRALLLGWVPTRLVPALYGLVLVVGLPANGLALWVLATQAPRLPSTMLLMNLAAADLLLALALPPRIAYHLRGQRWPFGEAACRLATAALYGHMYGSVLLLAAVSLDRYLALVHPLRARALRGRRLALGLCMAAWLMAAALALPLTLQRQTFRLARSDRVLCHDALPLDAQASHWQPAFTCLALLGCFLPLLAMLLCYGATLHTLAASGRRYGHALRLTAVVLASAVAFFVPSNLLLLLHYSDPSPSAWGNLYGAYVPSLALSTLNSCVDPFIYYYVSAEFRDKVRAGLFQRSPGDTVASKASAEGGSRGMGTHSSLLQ

PAR1 = biological target: T2, PAR1 (Homo sapiens, UniProt P25116); conditions: ACS patients, phase III
T2 sequence (P25116 22-425): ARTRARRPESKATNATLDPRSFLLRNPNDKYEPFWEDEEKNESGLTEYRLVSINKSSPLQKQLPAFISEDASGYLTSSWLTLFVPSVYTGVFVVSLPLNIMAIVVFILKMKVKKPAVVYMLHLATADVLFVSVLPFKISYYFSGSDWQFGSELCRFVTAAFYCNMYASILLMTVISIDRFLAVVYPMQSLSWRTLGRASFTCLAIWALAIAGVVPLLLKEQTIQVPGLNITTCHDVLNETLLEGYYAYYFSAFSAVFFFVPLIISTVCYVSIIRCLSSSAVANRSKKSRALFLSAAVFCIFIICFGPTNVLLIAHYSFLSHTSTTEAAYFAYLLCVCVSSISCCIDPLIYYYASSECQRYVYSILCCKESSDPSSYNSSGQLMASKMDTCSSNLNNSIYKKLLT

Row | Compound | inhibition of PAR4-dependent platelet activation [1] | cardiovascular events (PAR1) | risk of major bleeding (PAR1)
1 | CCOC(=O)c1ccc(-c2nn(Cc3ccccc3)c3ccccc23)cc1 [ethyl 4-(1-benzyl-1H-indazol-3-yl)benzoate] | selective and potent inhibitor |  | 
2 | CCOC(=O)N[C@@H]1CC[C@@H]2[C@@H](C1)C[C@H]1C(=O)O[C@H](C)[C@H]1[C@H]2/C=C/c1ccc(-c2cccc(F)c2)cn1 [vorapaxar] |  | did not significantly reduce | significantly increased
